Test results taken from article PMC10660663.

Test: SuFEx S-O bond formation: di-sulfonimidoyl fluoride (mixture of diastereomers) + diphenol (1:1), DBU 2.1 equiv, [1+1] macrocyclisation, one pot
Conditions: the molecule shown is the open-chain precursor, MeCN, 20.0 mM, 50.0 °C

SMILES: Cc1ccc(S(=O)(F)=NC(=O)c2ccc(Oc3ccc(C(=O)N=S(=O)(Oc4cccc(Oc5cccc(Oc6cccc(O)c6)c5)c4)c4ccc(C)cc4)cc3)cc2)cc1 (centres unmarked) [3k]
- ring closure, isolated yield (28-membered ring, 3.0 h): 88%

SMILES: Cc1ccc(S(=O)(F)=NC(=O)c2ccc(Oc3ccc(C(=O)N=S(=O)(Oc4ccc(OCCOc5ccc(O)cc5)cc4)c4ccc(C)cc4)cc3)cc2)cc1 (centres unmarked) [3l]
- ring closure, isolated yield (29-membered ring, 3.0 h): 67%

SMILES: Cc1ccc(S(=O)(F)=NC(=O)c2ccc(Oc3ccc(C(=O)N=S(=O)(Oc4ccc(OCCCCOc5ccc(O)cc5)cc4)c4ccc(C)cc4)cc3)cc2)cc1 (centres unmarked) [3m]
- ring closure, isolated yield (31-membered ring, 3.0 h): 78%

SMILES: Cc1ccc(S(=O)(F)=NC(=O)c2cccc(C(=O)N=S(=O)(Oc3ccc(SSc4ccc(O)cc4)cc3)c3ccc(C)cc3)c2)cc1 (centres unmarked) [3n]
- ring closure, isolated yield (21-membered ring, 3.0 h): 72%

SMILES: Cc1ccc(S(=O)(F)=NC(=O)c2cccc(C(=O)N=S(=O)(Oc3ccc(C(C)(C)c4cccc(C(C)(C)c5ccc(O)cc5)c4)cc3)c3ccc(C)cc3)c2)cc1 (centres unmarked) [3o (isophthaloyl)]
- ring closure, isolated yield (24-membered ring, 3.0 h): 70%

SMILES: Cc1ccc(S(=O)(F)=NC(=O)c2cccc(C(=O)N=S(=O)(Oc3cccc(Oc4cccc(Oc5cccc(O)c5)c4)c3)c3ccc(C)cc3)c2)cc1 (centres unmarked) [3p]
- ring closure, isolated yield (22-membered ring, 3.0 h): 69%

SMILES: Cc1ccc(S(=O)(F)=NC(=O)c2cccc(C(=O)N=S(=O)(Oc3ccc(OCCOc4ccc(O)cc4)cc3)c3ccc(C)cc3)c2)cc1 (centres unmarked) [3q]
- ring closure, isolated yield (23-membered ring, 3.0 h): 64%

SMILES: Cc1ccc(S(=O)(F)=NC(=O)c2cccc(C(=O)N=S(=O)(Oc3ccc(SSc4ccc(O)cc4)cc3)c3ccc(C)cc3)n2)cc1 (centres unmarked) [3r]
- ring closure, isolated yield (21-membered ring, 3.0 h): 91%

SMILES: Cc1ccc(S(=O)(F)=NC(=O)c2ccc(-c3ccc(C(=O)N=S(=O)(Oc4ccccc4CNCCCCCCNCc4ccccc4O)c4ccc(C)cc4)cc3)cc2)cc1 (centres unmarked) [3s]
- ring closure, isolated yield (30-membered ring, 3.0 h): 80%

SMILES: Cc1ccc(S(=O)(F)=NC(=O)c2ccc(-c3ccc(C(=O)N=S(=O)(Oc4ccc(C(C)(C)c5cccc(C(C)(C)c6ccc(O)cc6)c5)cc4)c4ccc(C)cc4)cc3)cc2)cc1 (centres unmarked) [3t]
- ring closure, isolated yield (29-membered ring, 3.0 h): 90%

SMILES: Cc1ccc(S(=O)(F)=NC(=O)c2ccc(C(=O)N=S(=O)(Oc3ccc(Cc4ccc(O)cc4)cc3)c3ccc(C)cc3)cc2)cc1 (centres unmarked) [3u (10 mM, 6 h)]
- ring closure, isolated yield (21-membered ring, 6.0 h): 94%
